From patent US10196357B2, “Biaryl compositions and methods for modulating a kinase cascade” (Athenex, Inc., priority 2007, dated 2019)
Values joined by “and” are separate entries in the source; they are usually repeats but may differ in a detail not shown here. Identical values can stand only once. Like-named read-outs stand apart in the source and are kept apart here.

How the values were obtained:
[1] = tested on: HT29 cell line; assay: BrdU cell growth inhibition, HT29; assay type: cell-based, human; conditions: Homo sapiens, read-out: GI50
How it was run: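 HT29 colon carcinoma cells treated with compounds diluted from 20 mM DMSO stocks into DMEM/10% FBS. Proliferation read as colorimetric BrdU incorporation ELISA; GI calculated relative to untreated cells at time 0 and control cells at day n, with GI50 extrapolated. Net cell loss below time-0 level scored as cytotoxicity.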

[2] = tested on: c-Src 3T3 cells; assay: BrdU cell growth inhibition, c-Src 3T3; assay type: cell-based, mouse; conditions: Mus musculus; c-Src 3T3 (c-Src527F/NIH3T3) cells; read-out: GI50
How it was run: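 c-Src 3T3 cells on poly-D-lysine plates in DMEM with 2% FBS, L-glutamine, pyruvate and 10 mM HEPES. Compounds came from 20 mM DMSO stocks diluted in DMEM/10% FBS. Proliferation was read by colorimetric BrdU-incorporation ELISA, and GI50 was extrapolated from growth relative to time-zero and untreated controls.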

[3] = tested on: lung cancer cell line A549; assay: tumor growth inhibition, A549; assay type: cell-based, Human; conditions: Homo sapiens, A549, A549, BrdU, T=72
Excerpt: (§1) Growth Inhibition. […] T1 values≤T0 values were designated as T, cytotoxicity.

[4] = tested on: MDA231 (Breast); assay: growth inhibition (BrdU), MDA231; assay type: cell-based, Human; conditions: Homo sapiens, MDA-MB-231, MDA-MB-321, BrdU, T=72
Excerpt: as §1

[5] = tested on: K562 (CML); assay: growth inhibition (BrdU), K562; assay type: cell-based, Human; conditions: Homo sapiens, K562, K562, BrdU, T=72
Excerpt: as §1

[6] = plasma exposure after oral administration; assay type: in vivo, male CD-1 mice; conditions: for concentration at 0.5 h / concentration at 1 h / concentration at 2 h / concentration at 5 h / AUC(0-t) / Cmax / Tmax: male, CD-1, mouse; for concentration at 0.5 h / concentration at 1 h / concentration at 2 h / concentration at 5 h: plasma, po; for AUC(0-t) / Cmax / Tmax: Plasma
Experimental: (§2) Plasma concentrations were measured in mice after oral administration. All doses were formulated in purified water. Four groups of male CD-1 mice were dosed after an overnight fast and fed 4 hours post-dose. Dosing was as follows:
(§3) Protein was precipitated with 0.25 mL acetonitrile for plasma, 0.25 mL for brain. After centrifugation, supernatant was directly injected into an LC/MS system. The limit of quantitation was 1 ng/mL using a 50 μL aliquot for plasma and a 50 μL, aliquot for brain. The standard curve was 1 to 1,000 ng/mL for both plasma and brain. HPLC conditions were as follows:
(§4) HPLC System: Shimadzu SCL-10 System
(§5) • Analytical Column: Aquasil C18 5 μm 100×2 mm column. • Column Temperature: Ambient temperature • Autosampler Temperature: Ambient temperature • Mobile Phase A) 10 mM Ammonium formate in water (pH 4). • B) Acetonitrile. • Flow Rate: 0.6 mL/min • Injection Volume: 2 μL • Gradient:
(§6) • Mass Spectrometry Conditions were as follows: • Instrument: ABI Sciex API 4000 • Mode: ESI+ • Experiment: MRM (multiple reaction monitoring) • Transitions: KX2-391: m/z 432.4→114.2 (Rt=3.11 minute) • KX2-361: m/z 406.1→253.2 (Rt=3.33 minute)

[7] = brain exposure after oral administration; assay type: in vivo, male CD-1 mice; conditions: for AUClast: Brain; for Kp: brain and plasma, read-out: AUClast Brain/AUClast Plasma Ratio
Experimental: as §2, §3, §4, §5, §6

Structure (SMILES): O=C(Cc1ccc(-c2ccc(OCCN3CCOCC3)cc2)cn1)NCc1ccccc1 [KX2-391]
- GI50 ([1]; HT-29, HT29 (Colon) cells): 23 nM
- GI50 ([1]; HT-29, HT-29, BrdU, T=72): 15.4 nM
- GI50 [2]: 13 nM
- GI50 [3]: 9.39 nM
- GI50 [4]: 19.8 nM
- GI50 [5]: 10.9 nM
- concentration at 0.5 h ([6]; 10 mg/kg, single PO dose 10 mg/kg (Group 1), 0.5 hr, read-out: Plasma Concentrations, Group A, B, C): 779 ng/mL
- concentration at 0.5 h ([6]; 10 mg/kg, single PO dose 10 mg/kg (Group 1), 0.5 hr, read-out: Plasma Concentrations, Mean): 871 ng/mL
- concentration at 1 h ([6]; 10 mg/kg, single PO dose 10 mg/kg (Group 1), 1 hr, read-out: Plasma Concentrations, Mean): 363 ng/mL
- concentration at 2 h ([6]; 10 mg/kg, single PO dose 10 mg/kg (Group 1), 2 hr, read-out: Plasma Concentrations, Group A, B, C): 328 ng/mL
- concentration at 2 h ([6]; 10 mg/kg, single PO dose 10 mg/kg (Group 1), 2 hr, read-out: Plasma Concentrations, Mean): 287 ng/mL
- concentration at 5 h ([6]; 10 mg/kg, single PO dose 10 mg/kg (Group 1), 5 hr, read-out: Plasma Concentrations, Group A, B, C): 133 ng/mL
- concentration at 5 h ([6]; 10 mg/kg, single PO dose 10 mg/kg (Group 1), 5 hr, read-out: Plasma Concentrations, Mean): 147 ng/mL
- concentration at 0.5 h ([6]; 50 mg/kg, single PO dose 50 mg/kg (Group 2), 0.5 hr, read-out: Plasma Concentrations, Group A, B, C): 8510 ng/mL
- concentration at 0.5 h ([6]; 50 mg/kg, single PO dose 50 mg/kg (Group 2), 0.5 hr, read-out: Plasma Concentrations, Mean): 9720 ng/mL
- concentration at 1 h ([6]; 50 mg/kg, single PO dose 50 mg/kg (Group 2), 1 hr, read-out: Plasma Concentrations, Group A, B, C): 2370 ng/mL
- concentration at 1 h ([6]; 50 mg/kg, single PO dose 50 mg/kg (Group 2), 1 hr, read-out: Plasma Concentrations, Mean): 2060 ng/mL
- concentration at 2 h ([6]; 50 mg/kg, single PO dose 50 mg/kg (Group 2), 2 hr, read-out: Plasma Concentrations, Group A, B, C): 1150 ng/mL
- concentration at 2 h ([6]; 50 mg/kg, single PO dose 50 mg/kg (Group 2), 2 hr, read-out: Plasma Concentrations, Mean): 1510 ng/mL
- concentration at 5 h ([6]; 50 mg/kg, single PO dose 50 mg/kg (Group 2), 5 hr, read-out: Plasma Concentrations, Mean): 922 ng/mL
- AUC(0-t) ([6]; single oral dose 10 mg/kg): 1500 ng·h/mL
- Cmax ([6]; single oral dose 10 mg/kg): 871 ng/mL
- Tmax ([6]; single oral dose 10 mg/kg): 30 min
- AUC(0-t) ([6]; single oral dose 50 mg/kg): 10800 ng·h/mL
- Cmax ([6]; single oral dose 50 mg/kg): 9720 ng/mL
- Tmax ([6]; single oral dose 50 mg/kg): 30 min
- Plasma Concentrations, Group A, B, C ([6]; single PO dose 10 mg/kg (Group 1), 0.5 hr, 10 mg/kg): 1096.62 ng/mL and 737.37 ng/mL
- Plasma Concentrations, Group A, B, C ([6]; single PO dose 10 mg/kg (Group 1), 2 hr, 10 mg/kg): 271.89 ng/mL and 261.57 ng/mL
- Plasma Concentrations, Group A, B, C ([6]; single PO dose 10 mg/kg (Group 1), 5 hr, 10 mg/kg): 147.74 ng/mL and 160.62 ng/mL
- Plasma Concentrations, Group A, B, C ([6]; single PO dose 50 mg/kg (Group 2), 0.5 hr, 50 mg/kg): 8334.53 ng/mL and 12315.31 ng/mL
- Plasma Concentrations, Group A, B, C ([6]; single PO dose 50 mg/kg (Group 2), 1 hr, 50 mg/kg): 2442.20 ng/mL and 1365.56 ng/mL
- Plasma Concentrations, Group A, B, C ([6]; single PO dose 50 mg/kg (Group 2), 2 hr, 50 mg/kg): 1546.09 ng/mL and 1850.18 ng/mL
- AUClast ([7]; single oral dose 10 mg/kg): 631 ng·h/g
- AUClast ([7]; single oral dose 50 mg/kg): 4211 ng·h/g
- KX2-391 Brain Concentrations, Group A ([7]; Male CD-1 mice, single PO dose 50 mg/kg (Group 4), 0 hr, Group A): BLQ (BLQ: Below Limit of Quantitation (1 ng/mL))
- KX2-391 Brain Concentrations, Group B ([7]; Male CD-1 mice, single PO dose 50 mg/kg (Group 4), 0 hr, Group B): BLQ (BLQ: Below Limit of Quantitation (1 ng/mL))
- KX2-391 Brain Concentrations, Group C ([7]; Male CD-1 mice, single PO dose 50 mg/kg (Group 4), 0 hr, Group C): BLQ (BLQ: Below Limit of Quantitation (1 ng/mL))
- Kp ([7]; male, CD-1, mouse, single oral dose 10 mg/kg): 0.42
- Kp ([7]; male, CD-1, mouse, single oral dose 50 mg/kg): 0.39
- concentration at 0.5 h ([7]; male, CD-1, mouse, brain, po, 10 mg/kg, single PO dose 10 mg/kg (Group 1), 0.5 hr, read-out: Brain Concentrations, Group A, B, C): 398 ng/g
